Assay results from ChEMBL document CHEMBL4507274 (2021).

Key:
[1] = test system: Receptor-type tyrosine-protein kinase FLT3 (Homo sapiens), P36888 [R834Q]; settings: Compound concentration 100.0 nM
[2] = biological target: Casein kinase II subunit alpha (Homo sapiens) (UniProt P68400); settings: Compound concentration 100.0 nM
[3] = test system: Tyrosine-protein kinase ABL1 (Homo sapiens), P00519 [Q252H]; settings: Compound concentration 100.0 nM
[4] = biological target: Mitogen-activated protein kinase kinase kinase 12 (Homo sapiens) (UniProt Q12852); settings: Compound concentration 100.0 nM
Chain of Mitogen-activated protein kinase kinase kinase 12 (Homo sapiens) (Q12852 whole entry): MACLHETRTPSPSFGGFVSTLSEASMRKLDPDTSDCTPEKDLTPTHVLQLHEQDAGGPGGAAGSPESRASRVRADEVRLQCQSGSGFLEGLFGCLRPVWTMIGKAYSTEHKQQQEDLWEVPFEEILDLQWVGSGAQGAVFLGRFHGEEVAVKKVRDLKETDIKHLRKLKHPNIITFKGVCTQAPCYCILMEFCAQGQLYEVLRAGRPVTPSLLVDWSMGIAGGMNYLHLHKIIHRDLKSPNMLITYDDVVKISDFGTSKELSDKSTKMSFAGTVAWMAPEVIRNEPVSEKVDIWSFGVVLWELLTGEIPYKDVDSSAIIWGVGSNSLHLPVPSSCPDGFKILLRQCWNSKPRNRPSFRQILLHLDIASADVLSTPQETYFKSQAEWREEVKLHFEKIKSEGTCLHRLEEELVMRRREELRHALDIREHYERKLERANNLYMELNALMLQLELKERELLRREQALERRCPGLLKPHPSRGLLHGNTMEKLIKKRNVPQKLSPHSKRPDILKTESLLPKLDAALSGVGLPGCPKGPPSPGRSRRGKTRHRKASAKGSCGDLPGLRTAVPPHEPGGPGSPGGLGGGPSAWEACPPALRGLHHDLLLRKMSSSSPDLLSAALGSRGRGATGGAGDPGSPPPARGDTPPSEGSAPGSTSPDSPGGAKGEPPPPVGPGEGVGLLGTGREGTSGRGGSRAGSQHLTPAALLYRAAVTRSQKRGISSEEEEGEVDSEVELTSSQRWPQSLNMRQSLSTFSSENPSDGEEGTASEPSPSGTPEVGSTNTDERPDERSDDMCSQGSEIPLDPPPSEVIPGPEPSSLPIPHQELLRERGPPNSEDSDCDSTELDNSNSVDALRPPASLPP

[5] = biological target: Serine/threonine-protein kinase SIK2 (Homo sapiens) (UniProt Q9H0K1); settings: Compound concentration 100.0 nM
Chain of Serine/threonine-protein kinase SIK2 (Homo sapiens) (Q9H0K1 whole entry, looked up, canonical isoform): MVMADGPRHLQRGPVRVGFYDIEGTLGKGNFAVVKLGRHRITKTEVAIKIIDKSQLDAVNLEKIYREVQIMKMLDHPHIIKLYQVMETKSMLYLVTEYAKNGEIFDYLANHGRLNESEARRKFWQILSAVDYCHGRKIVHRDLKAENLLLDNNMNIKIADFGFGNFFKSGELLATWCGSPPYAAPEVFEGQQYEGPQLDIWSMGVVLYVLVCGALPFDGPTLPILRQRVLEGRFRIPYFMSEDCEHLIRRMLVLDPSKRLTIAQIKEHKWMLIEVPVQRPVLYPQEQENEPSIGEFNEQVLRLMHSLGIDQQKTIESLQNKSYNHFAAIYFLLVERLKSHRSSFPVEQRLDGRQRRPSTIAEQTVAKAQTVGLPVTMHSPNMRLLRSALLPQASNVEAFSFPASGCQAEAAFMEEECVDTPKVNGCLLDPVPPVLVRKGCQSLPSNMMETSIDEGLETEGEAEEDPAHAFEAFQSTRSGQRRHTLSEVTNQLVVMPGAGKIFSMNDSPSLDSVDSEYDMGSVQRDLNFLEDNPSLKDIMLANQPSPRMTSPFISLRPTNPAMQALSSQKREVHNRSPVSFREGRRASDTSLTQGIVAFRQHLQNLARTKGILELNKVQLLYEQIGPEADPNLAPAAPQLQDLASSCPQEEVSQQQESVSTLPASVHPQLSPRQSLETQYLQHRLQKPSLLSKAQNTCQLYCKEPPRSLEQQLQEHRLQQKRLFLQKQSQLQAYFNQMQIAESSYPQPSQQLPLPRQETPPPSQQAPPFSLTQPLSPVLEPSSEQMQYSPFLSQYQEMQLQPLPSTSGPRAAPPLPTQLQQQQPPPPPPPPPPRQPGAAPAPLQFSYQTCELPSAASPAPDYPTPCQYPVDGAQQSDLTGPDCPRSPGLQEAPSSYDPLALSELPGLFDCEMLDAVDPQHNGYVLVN

[6] = test system: Phosphatidylinositol 4,5-bisphosphate 3-kinase catalytic subunit alpha isoform (Homo sapiens), P42336 [I800L]; settings: Compound concentration 100.0 nM
[7] = test system: Receptor-type tyrosine-protein kinase FLT3 (Homo sapiens), P36888 [UNDEFINED MUTATION]; settings: Compound concentration 100.0 nM
[8] = biological target: Beta-1 adrenergic receptor (Homo sapiens) (UniProt P08588); settings: Compound concentration 10.0 uM
Chain of Beta-1 adrenergic receptor (Homo sapiens) (P08588 whole entry, looked up): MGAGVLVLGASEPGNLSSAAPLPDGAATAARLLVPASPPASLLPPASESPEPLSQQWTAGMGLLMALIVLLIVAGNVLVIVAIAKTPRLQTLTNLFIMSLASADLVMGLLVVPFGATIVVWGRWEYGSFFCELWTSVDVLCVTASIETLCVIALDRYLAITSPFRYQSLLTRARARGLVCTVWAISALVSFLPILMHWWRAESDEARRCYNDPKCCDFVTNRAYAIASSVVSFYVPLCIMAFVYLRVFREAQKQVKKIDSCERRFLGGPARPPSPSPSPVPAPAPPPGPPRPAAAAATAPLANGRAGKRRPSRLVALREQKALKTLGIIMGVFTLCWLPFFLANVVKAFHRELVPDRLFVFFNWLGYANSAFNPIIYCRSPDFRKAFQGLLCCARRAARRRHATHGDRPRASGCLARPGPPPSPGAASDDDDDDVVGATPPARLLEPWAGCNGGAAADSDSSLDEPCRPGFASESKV

[9] = biological target: Beta-2 adrenergic receptor (Homo sapiens) (UniProt P07550); settings: Compound concentration 10.0 uM
Chain of Beta-2 adrenergic receptor (Homo sapiens) (P07550 whole entry, looked up): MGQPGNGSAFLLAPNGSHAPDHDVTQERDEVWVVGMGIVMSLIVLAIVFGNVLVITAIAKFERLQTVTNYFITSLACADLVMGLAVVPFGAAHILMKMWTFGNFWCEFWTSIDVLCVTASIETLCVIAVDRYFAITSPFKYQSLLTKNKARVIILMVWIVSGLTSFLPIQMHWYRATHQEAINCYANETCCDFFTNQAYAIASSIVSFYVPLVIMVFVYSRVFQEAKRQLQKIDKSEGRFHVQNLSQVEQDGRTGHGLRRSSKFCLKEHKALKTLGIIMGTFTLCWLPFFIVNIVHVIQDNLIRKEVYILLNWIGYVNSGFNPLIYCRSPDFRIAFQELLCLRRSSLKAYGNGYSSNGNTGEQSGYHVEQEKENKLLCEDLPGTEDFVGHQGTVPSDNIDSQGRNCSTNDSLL

[10] = biological target: Muscarinic acetylcholine receptor M2 (Homo sapiens) (UniProt P08172); settings: Compound concentration 10.0 uM
[11] = biological target: Ephrin type-A receptor 7 (Homo sapiens) (UniProt Q15375); settings: Compound concentration 100.0 nM
[12] = biological target: Dual specificity protein kinase CLK3 (Homo sapiens) (UniProt P49761); settings: Compound concentration 100.0 nM
[13] = biological target: Serine/threonine-protein kinase pim-2 (Homo sapiens) (UniProt Q9P1W9); settings: Compound concentration 100.0 nM
Chain of Serine/threonine-protein kinase pim-2 (Homo sapiens) (Q9P1W9 whole entry, looked up): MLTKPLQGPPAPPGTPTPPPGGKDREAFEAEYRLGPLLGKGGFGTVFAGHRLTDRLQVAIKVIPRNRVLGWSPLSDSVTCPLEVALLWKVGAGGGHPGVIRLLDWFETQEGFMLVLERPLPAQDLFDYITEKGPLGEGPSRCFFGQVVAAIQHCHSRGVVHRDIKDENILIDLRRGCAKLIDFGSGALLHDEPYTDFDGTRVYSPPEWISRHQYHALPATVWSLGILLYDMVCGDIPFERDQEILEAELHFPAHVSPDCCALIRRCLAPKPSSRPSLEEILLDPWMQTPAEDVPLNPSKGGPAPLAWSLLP

[14] = biological target: Cyclin-dependent kinase 4 (Homo sapiens) (UniProt P11802); settings: Compound concentration 100.0 nM
[15] = biological target: Serine/threonine-protein kinase STK11 (Homo sapiens) (UniProt Q15831); settings: Compound concentration 100.0 nM
Chain of Serine/threonine-protein kinase STK11 (Homo sapiens) (Q15831 whole entry): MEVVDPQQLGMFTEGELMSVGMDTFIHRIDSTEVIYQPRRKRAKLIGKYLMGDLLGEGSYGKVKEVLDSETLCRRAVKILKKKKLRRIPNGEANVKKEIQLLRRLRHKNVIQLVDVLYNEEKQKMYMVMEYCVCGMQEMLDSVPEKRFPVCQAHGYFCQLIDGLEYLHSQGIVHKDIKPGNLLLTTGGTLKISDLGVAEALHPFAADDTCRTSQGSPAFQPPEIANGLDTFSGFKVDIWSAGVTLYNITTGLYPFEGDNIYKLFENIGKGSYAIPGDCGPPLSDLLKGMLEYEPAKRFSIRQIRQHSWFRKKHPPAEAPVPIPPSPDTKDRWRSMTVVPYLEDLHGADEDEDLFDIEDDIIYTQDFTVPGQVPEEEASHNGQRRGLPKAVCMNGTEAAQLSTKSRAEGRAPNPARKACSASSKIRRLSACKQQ

[16] = test system: ALK tyrosine kinase receptor (Homo sapiens), Q9UM73 [L1196M]; settings: Compound concentration 100.0 nM
[17] = biological target: Serine/threonine-protein kinase TAO1 (Homo sapiens) (UniProt Q7L7X3); settings: Compound concentration 100.0 nM
[18] = biological target: Cyclin-dependent kinase 17 (Homo sapiens) (UniProt Q00537); settings: Compound concentration 100.0 nM
[19] = biological target: Mitogen-activated protein kinase kinase kinase kinase 4 (Homo sapiens) (UniProt O95819); settings: Compound concentration 100.0 nM
[20] = biological target: T1, Serine/threonine-protein kinase 3 (Homo sapiens) (UniProt Q13188); settings: Compound concentration 100.0 nM
T1 sequence (whole entry): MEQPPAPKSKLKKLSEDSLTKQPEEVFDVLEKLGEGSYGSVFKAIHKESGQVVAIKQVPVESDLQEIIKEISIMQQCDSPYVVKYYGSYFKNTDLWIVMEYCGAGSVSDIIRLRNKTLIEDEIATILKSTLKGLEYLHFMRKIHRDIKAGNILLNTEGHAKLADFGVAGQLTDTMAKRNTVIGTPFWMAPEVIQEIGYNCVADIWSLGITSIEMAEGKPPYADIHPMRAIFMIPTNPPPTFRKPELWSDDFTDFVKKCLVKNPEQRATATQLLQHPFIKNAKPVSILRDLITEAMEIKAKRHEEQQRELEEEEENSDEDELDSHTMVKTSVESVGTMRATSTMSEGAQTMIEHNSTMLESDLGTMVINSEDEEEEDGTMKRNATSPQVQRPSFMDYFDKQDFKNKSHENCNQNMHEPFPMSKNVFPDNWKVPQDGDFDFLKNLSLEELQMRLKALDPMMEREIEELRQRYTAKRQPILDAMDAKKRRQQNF

[21] = biological target: Muscarinic acetylcholine receptor M1 (Homo sapiens) (UniProt P11229); settings: Compound concentration 10.0 uM
[22] = biological target: Calcium/calmodulin-dependent protein kinase type 1B (Homo sapiens) (UniProt Q6P2M8); settings: Compound concentration 100.0 nM
[23] = biological target: Glycogen synthase kinase-3 beta (Homo sapiens) (UniProt P49841); settings: Compound concentration 100.0 nM
[24] = biological target: Rhodopsin kinase GRK1 (Homo sapiens) (UniProt Q15835); settings: Compound concentration 100.0 nM
[25] = test system: Tyrosine-protein kinase ABL1 (Homo sapiens), P00519 [Y253F]; settings: Compound concentration 100.0 nM
[26] = biological target: Phosphatidylinositol 4,5-bisphosphate 3-kinase catalytic subunit gamma isoform (Homo sapiens) (UniProt P48736); settings: Compound concentration 100.0 nM
[27] = biological target: Kappa-type opioid receptor (Homo sapiens, UniProt P41145); settings: Compound concentration 10.0 uM
[28] = biological target: Serine/threonine-protein kinase 4 (Homo sapiens) (UniProt Q13043); settings: Compound concentration 100.0 nM
[29] = biological target: Tyrosine-protein kinase Tec (Homo sapiens) (UniProt P42680); settings: Compound concentration 100.0 nM
[30] = biological target: Aurora kinase B (Homo sapiens) (UniProt Q96GD4); settings: Compound concentration 100.0 nM
Chain of Aurora kinase B (Homo sapiens) (Q96GD4 whole entry): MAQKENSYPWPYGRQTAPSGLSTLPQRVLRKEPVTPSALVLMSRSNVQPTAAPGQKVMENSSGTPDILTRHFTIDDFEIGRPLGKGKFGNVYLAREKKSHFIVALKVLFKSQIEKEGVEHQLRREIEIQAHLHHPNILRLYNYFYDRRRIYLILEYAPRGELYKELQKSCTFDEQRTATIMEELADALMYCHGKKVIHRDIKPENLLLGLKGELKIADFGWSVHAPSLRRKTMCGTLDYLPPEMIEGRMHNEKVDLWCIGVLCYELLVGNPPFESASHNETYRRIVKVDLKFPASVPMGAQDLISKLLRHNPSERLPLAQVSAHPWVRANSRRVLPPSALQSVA

[31] = biological target: Serine/threonine-protein kinase MAK (Homo sapiens) (UniProt P20794); settings: Compound concentration 100.0 nM
[32] = biological target: Calcium/calmodulin-dependent protein kinase type II subunit alpha (Homo sapiens) (UniProt Q9UQM7); settings: Compound concentration 100.0 nM
[33] = biological target: Dual specificity tyrosine-phosphorylation-regulated kinase 1A (Homo sapiens) (UniProt Q13627); settings: Compound concentration 100.0 nM
[34] = biological target: Ribosomal protein S6 kinase alpha-3 (Homo sapiens) (UniProt P51812); settings: Compound concentration 100.0 nM
[35] = biological target: Serine/threonine-protein kinase MARK1 (Homo sapiens) (UniProt Q9P0L2); settings: Compound concentration 100.0 nM
Chain of Serine/threonine-protein kinase MARK1 (Homo sapiens) (Q9P0L2 whole entry, looked up): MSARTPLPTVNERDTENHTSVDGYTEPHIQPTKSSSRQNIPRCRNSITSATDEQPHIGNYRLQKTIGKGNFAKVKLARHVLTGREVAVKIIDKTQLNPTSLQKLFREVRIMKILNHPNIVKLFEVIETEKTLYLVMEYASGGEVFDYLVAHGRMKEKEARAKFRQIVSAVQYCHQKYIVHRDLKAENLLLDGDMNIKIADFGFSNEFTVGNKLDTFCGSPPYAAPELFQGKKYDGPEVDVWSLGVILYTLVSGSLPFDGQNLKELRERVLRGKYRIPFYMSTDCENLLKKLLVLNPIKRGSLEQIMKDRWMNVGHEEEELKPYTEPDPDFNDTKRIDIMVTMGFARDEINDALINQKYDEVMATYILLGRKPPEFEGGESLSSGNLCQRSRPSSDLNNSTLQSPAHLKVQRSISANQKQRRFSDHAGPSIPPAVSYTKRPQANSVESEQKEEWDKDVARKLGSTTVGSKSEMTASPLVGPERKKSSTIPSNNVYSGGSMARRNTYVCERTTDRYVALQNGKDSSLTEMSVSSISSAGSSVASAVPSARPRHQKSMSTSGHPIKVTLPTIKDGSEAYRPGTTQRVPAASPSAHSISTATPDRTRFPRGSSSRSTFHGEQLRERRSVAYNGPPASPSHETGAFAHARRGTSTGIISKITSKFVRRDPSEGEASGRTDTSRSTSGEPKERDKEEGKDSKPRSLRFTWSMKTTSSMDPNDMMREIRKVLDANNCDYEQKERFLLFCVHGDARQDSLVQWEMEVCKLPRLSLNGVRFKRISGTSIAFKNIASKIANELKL

[36] = biological target: Serine/threonine-protein kinase B-raf (Homo sapiens) (UniProt P15056); settings: Compound concentration 100.0 nM
[37] = biological target: Activin receptor type-2A (Homo sapiens) (UniProt P27037); settings: Compound concentration 100.0 nM
[38] = biological target: Atypical kinase COQ8B, mitochondrial (Homo sapiens) (UniProt Q96D53); settings: Compound concentration 100.0 nM

Chain of Casein kinase II subunit alpha (Homo sapiens) (P68400 whole entry, looked up): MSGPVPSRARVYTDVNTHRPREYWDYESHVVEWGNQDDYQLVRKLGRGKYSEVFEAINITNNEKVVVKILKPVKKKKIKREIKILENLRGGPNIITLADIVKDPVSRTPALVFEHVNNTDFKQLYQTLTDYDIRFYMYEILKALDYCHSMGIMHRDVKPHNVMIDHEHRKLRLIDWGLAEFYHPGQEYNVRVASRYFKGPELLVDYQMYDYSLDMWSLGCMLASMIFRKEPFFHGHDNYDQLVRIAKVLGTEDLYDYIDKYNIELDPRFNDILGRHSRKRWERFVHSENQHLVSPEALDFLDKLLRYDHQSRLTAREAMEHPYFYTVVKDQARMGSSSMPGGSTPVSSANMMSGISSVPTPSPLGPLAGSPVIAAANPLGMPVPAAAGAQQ

Compound	residual activity [1]	residual activity [2]	residual activity [3]	residual activity [4]	residual activity [5]	residual activity [6]	residual activity [7]	inhibition [8]	inhibition [9]	inhibition [10]	residual activity [11]	residual activity [12]	residual activity [13]	residual activity [14]	residual activity [15]	residual activity [16]	residual activity [17]	residual activity [18]	residual activity [19]	residual activity [20]	further results
Cc1c[nH]c2nccc(Oc3c(F)cc(Nc4cc(Cl)nc(N)n4)cc3F)c12 [BAY-549]	85%	100%	85%	98%	100%	90%	54%	6.86%	-7.12%	7.41%	82%	91%	100%	67%	100%	99%	84%	81%	94%	69%	inhibition [21]: -0.22%; residual activity [22]: 94%; residual activity [23]: 98%; residual activity [24]: 82%; residual activity [25]: 81%; residual activity [26]: 88%; inhibition [27]: 64.6%; residual activity [28]: 100%; residual activity [29]: 86%; residual activity [30]: 82%; residual activity [31]: 84%; residual activity [32]: 70%; residual activity [33]: 88%; residual activity [34]: 73%; residual activity [35]: 82%; residual activity [36]: 98%; residual activity [37]: 94%; residual activity [38]: 88%
Cn1cc(Cl)c2c(Oc3c(F)cc(Nc4cc(Cl)nc(N)n4)cc3F)ccnc21 [BAY-4900]	83%	98%	78%	100%	100%	82%	61%	-2.51%	10.2%	0.85%	96%	91%	88%	85%	100%	100%	97%	100%	86%	92%	inhibition [21]: -5.04%; residual activity [22]: 90%; residual activity [23]: 90%; residual activity [24]: 92%; residual activity [25]: 95%; residual activity [26]: 82%; inhibition [27]: 54.4%; residual activity [28]: 94%; residual activity [29]: 100%; residual activity [30]: 78%; residual activity [31]: 97%; residual activity [32]: 82%; residual activity [33]: 98%; residual activity [34]: 79%; residual activity [35]: 100%; residual activity [36]: 100%; residual activity [37]: 87%; residual activity [38]: 89%
